# From patent US20080206881A1, “DIAGNOSTIC MARKER FOR NEURODEGENERATIVE DISEASES” (priority 2007, published 2008)
# Entries after “also recorded” stand apart in the source; their conditions may differ. Like-named read-outs stand apart in the source and are kept apart here.
# Legend:
# ALS patients [1] = conditions: cited from earlier work
# ALS patients [2] = assay: Serum protein carbonyl determination in ALS patients (2,4-dinitrophenylhydrazine method); assay type: in vivo, human; conditions: for serum protein carbonyl level under high-dose vitamin E: ALS patients (n=12) on high-dose vitamin E for 10.4±2.5 months before starting melatonin
# Source text: Protein carbonyl content of blood serum and other body fluids can be determined according to the 2,4-dinitrophenylhydrazine method described by Levine et al. (Levine Methods Enzymol 1990: 186: 464-478). The protein content can be measured according to Lowry et al. (Lowry J Biol Chem 1951: 193: 265-275) to enable a normalization of the protein carbonyl level. Other suitable methods and reagents known in the field to measure protein content and/or the content of protein carbonyls can also be used. Protein carbonyl measurements were performed in the serum of 19 consecutively admitted ALS patients (61.7±1.9 yr, 12 males, […] daily as suppositories at bedtime) and of ten healthy controls (61.2±2.0 years, five males, five females). Protein carbonyls were determined by a variant of the 2,4-dinitrophenylhydrazine method (Levine Methods Enzymol 1990: 186: 464-478). Serum was diluted 1:10 with ice-cold 5-mM pf potassium phosphate buffer, pH 7.5, containing leupeptin (0.5 μg/mL), aprotinin (0.5 μg/mL), and pepstatin A (0.7 μg/mL); 300 μL was used for a single determination. Deviations from the original procedure concerned elimination of the chromogen: protein pellets were washed three times with 1 mL of ethanol/ ethylacetate (1:1); particular attention was given to thorough resuspension (vortexing) and complete removal of the supernatant using Pasteur pipettes, and thereafter, stripes of blotting paper. Protein was measured according to Lowry et al. (Lowry J Biol Chem 1951: 193: 265-275).
# ALS mouse model = conditions: high-dose oral melatonin; U.S. Pub. No. 2004/0192745; cited from earlier work
# ALS patients [3] = assay: Clinical outcome (ALSFRS) of ALS patients with or without continuous high-dose vitamin E; assay type: in vivo, human; conditions: ALSFRS after 1 yr of melatonin treatment
# Source text: Remarkably, most of these patients (n=12) had already been on high-dose vitamin E, another antioxidant, for 10.4±2.5 months before starting the melatonin treatment.
# ALS = conditions: cited from earlier work; for clinical efficacy in ALS: clinical setting, literature
# Alzheimer's disease (AD) = conditions: in vivo; cited from earlier work
compound,measurement,setting,value
"Nc1nc2ccc(OC(F)(F)F)cc2s1 [RILUZOLE®, 2-amino-6-(trifluoromethoxxy)benzothiazole]",other important outcome measures,ALS patients [1],lacked benefit
same,side effects,ALS patients [1],"asthenia, nausea, anorexia, diarrhea, headache, and increase in liver transaminases; also recorded: enhances catabolism"
COc1ccc2[nH]cc(CCNC(C)=O)c2c1 [melatonin],serum protein carbonyl content after melatonin treatment,"ALS patients [2]; ALS patients n=19, 300 mg melatonin daily as suppositories at bedtime, mean treatment time 4.68±0.22 months, versus matched healthy controls n=10",decrease to levels of matched healthy controls; also recorded: normalized to control values; also recorded: fully reverted to control levels; also recorded: normalizes the serum protein carbonyl level to control level
same,survival of ALS mouse model,ALS mouse model,prolongation of survival; also recorded: exhibit efficacy
vitamin E,serum protein carbonyl level under high-dose vitamin E,ALS patients [2],does not change the level of serum protein carbonyls
same,serum protein carbonyl level under high-dose vitamin E,ALS patients [2]; listed as Vitamin E,does not decrease the serum protein carbonyl level
same,clinical outcome (ALSFRS),ALS patients [3],did not reveal any beneficial effect
same,risk of developing ALS,"ALS; 10-yr prospective study with over 900,000 individuals, regular intake of vitamin E",decreased risk of developing ALS
same,clinical efficacy in ALS,ALS,"did not reveal any beneficial effect; also recorded: none of the antioxidative compounds tested, including vitamin E, proved to be effective"
same,clinical efficacy in ALS,ALS; listed as Vitamin E,ineffective in ALS treatment
same,disease progression in AD,Alzheimer's disease (AD),slowing of disease progression
